Assay results published in US20200323882A1, “PHLIP®-MEDIATED TARGETING OF CORTICOSTEROIDS TO DISEASED TISSUE” (priority 2019, published 2020).
Read-outs that look alike come from different tables or passages of the source.

Columns and labels:
[1] = tested on: MCP-1 (monocyte chemoattractant protein)
Procedure: CD-1 male mouse, 6 to 7 weeks and 32-38 grams from Charles River Labs were used in the study. […] Briefly, mice were allowed optimal inhalation and passive gravitational flow of LPS directly to the lungs. 50 μg (in 50 μl) LPS was instilled into the nares in five boluses of 10 μl each. […] For processing, a mammalian protease inhibitor cocktail (diluted 1:100 in PBS) was added to each lung sample. Lungs were homogenized by Beadbeater with 2 mm zirconia beads for 1.5 minutes. Homogenates were spun at 10K for 10 minutes at 4° C., and supernatants collected for analysis. Quantikine kit (R&D Systems) assays for JE/MCP-1 were performed as per kit protocols. For the lungs samples, MCP-1 content was expressed as pg/mg of protein. Protein measurements were performed by Pierce™ BCA Protein Assay Kit according to the protocol provided by a manufacturer.

[2] = tested on: oxazolone-induced contact hypersensitivity; details: 24 hrs after oxazolone challenge; pHLIP-Dexa 4.6 mg/kg i.p. vs Dexa 0.46 mg/kg i.p. and 20 mg/kg orally
Procedure: CD-1 male mouse, 8 to 10 weeks from Charles River Labs were used in the study. Contact hypersensitivity was induced by sensitization and challenge with oxazalone as follows: on day 1, mice are sensitized to oxazalone by application (50 μL; 3% in 100% ethanol) to the abdominal area (previously shaved) and to each footpad (5 μL). On day 6, mice were exposed to oxazalone (20 μL; 1% in 100% ethanol) by application to each side of right ear. Twenty-four hrs after challenge (day 7), dermatitis severity was measured using a visual scale: 0—no evidence of erythema or swelling; 1—mild swelling; 2—mild erythema and moderate selling; 3—erythema and severe swelling. Ear thickness was measured using a micrometer once, prior to sensitization on day 1 (baseline) and once, after dosing on day 7 of the study.

RPMI 8226 myeloma cells = details: 5 μM pHLIP-Dexa, 2 hrs without FBS, viability after 22 hours
Procedure: Myeloma cancer cells were loaded in the wells (30,000 cells/well) and incubated overnight. […] Cell viability was assessed after 22 hours using the colorimetric CellTiter 96 AQueous One Solution Cell Proliferation Assay by absorption measurement at 490 nm.

## pHLIP-(PEG4)-dexamethasone [pHLIP-Dexa]
[1]; dose 4.6 mg/kg in PBS/5% DMSO, 30 minutes after LPS
  reduction of level of MCP-1 protein: very effective in reducing level of MCP-1 protein
[1]; high dose 11.4 mg/kg in PBS/5% DMSO
  reduction of level of MCP-1 protein: less effective
[2]
  decrease of thickness of animal ear: as effective as high and low doses of Dexa
  reduction of inflammation (dermatitis severity, scale 0 to 3): as effective as high and low doses of Dexa
RPMI 8226 myeloma cells
  myeloma cancer cell viability, pHLIP-Dexa alone: induced myeloma cancer cells death
